biological target: T1, Nuclear factor erythroid 2-related factor 2 (Homo sapiens) (UniProt Q16236); experiment: Activation of Nrf2 (unknown origin) expressed in human HepG2 cells at 2.5 to 10 uM incubated for 6 hrs by ARE-driven luciferase reporter gene assay; type: cell-based; conditions: not given
T1 sequence (whole entry): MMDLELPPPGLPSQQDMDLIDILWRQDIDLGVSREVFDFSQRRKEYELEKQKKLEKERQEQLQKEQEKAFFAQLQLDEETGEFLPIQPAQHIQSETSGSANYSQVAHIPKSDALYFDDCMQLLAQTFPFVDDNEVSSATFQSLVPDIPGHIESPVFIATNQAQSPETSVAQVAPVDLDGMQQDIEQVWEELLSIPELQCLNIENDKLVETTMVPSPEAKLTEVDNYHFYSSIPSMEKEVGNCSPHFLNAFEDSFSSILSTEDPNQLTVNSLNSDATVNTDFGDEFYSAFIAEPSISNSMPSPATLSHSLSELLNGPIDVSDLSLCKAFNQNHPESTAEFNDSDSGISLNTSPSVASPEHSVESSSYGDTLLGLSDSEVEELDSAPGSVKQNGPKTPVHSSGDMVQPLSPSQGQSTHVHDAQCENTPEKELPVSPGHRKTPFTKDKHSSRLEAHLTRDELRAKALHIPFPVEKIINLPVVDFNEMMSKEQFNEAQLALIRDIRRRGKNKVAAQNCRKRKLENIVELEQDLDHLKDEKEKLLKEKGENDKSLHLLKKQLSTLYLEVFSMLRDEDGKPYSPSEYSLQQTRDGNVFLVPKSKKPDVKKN

Row | Compound | Activity
1 | C=C(C)[C@H](C)c1cc(/C=C/C(=O)c2ccc(O)cc2)c(OC)cc1O [LICOCHALCONE E] | Dose-dependent effect
2 | C=CC(C)(C)c1cc(/C=C/C(=O)c2ccc(O)c(O)c2)c(OC)cc1O | Dose-dependent effect

system: HepG2; experiment: Cytotoxicity in human HepG2 cells expressing Nrf2/ARE-driven luciferase at 20 to 40 uM incubated for 6 hrs; type: cell-based; conditions: hepg2, 6 h

Row | Compound | Activity
3 | C=CC(C)(C)c1cc(/C=C/C(=O)c2ccc(O)cc2)c(OC)c(O)c1O | Toxic
4 | COc1c(/C=C/C(=O)c2ccc(O)c(CC=C(C)C)c2)ccc(O)c1O [LICOCHALCONE D] | Toxic
5 | CC(C)=CCc1c(O)ccc(-c2cc3ccc(O)cc3o2)c1O [2'-O-DEMETHYLBIDWILLOL B] | Toxic

system: HepG2; experiment: Cytotoxicity in human HepG2 cells expressing Nrf2/ARE-driven luciferase at 10 to 40 uM incubated for 6 hrs; type: cell-based; conditions: hepg2, 6 h

Row | Compound | Activity
6 | C=C(C)[C@H](C)c1cc(/C=C/C(=O)c2ccc(O)cc2)c(OC)cc1O [LICOCHALCONE E] | Toxic
7 | C=CC(C)(C)c1cc(/C=C/C(=O)c2ccc(O)c(O)c2)c(OC)cc1O | Toxic

biological target: T1, Nuclear factor erythroid 2-related factor 2 (Homo sapiens); experiment: Activation of Nrf2 (unknown origin) expressed in human HepG2 cells at 10 uM incubated for 6 hrs by ARE-driven luciferase reporter gene assay relative to untreated control; type: cell-based; conditions: not given

Row | Compound | fold change (FC)
8 | CC(C)=CCc1c(O)ccc(-c2coc3c(CC=C(C)C)c(O)cc(O)c3c2=O)c1O | 1.98
9 | CC(C)=CCc1cc(-c2cc(=O)c3cc4c(cc3o2)OC(C)(C)C=C4)ccc1O | 1.73
10 | CC(C)=CCc1c(O)cc(O)c2c(=O)c(-c3ccc4c(c3O)C=CC(C)(C)O4)coc12 | 1.56
11 | C=CC(C)(C)c1cc(/C=C/C(=O)c2ccc(O)cc2)c(OC)c(O)c1O | 3.09
12 | CC(C)=CCc1c(O)ccc([C@H]2COc3cc(O)c(CC=C(C)C)c(O)c3C2=O)c1O | 1.98
13 | CC1(C)C=Cc2c(ccc3c2OC[C@@H](c2ccc(O)cc2O)C3)O1 | 2.58
14 | COc1cc2occ(-c3ccc(O)cc3O)c(=O)c2c(O)c1CC=C(C)C | 2.36
15 | CC(C)=CCc1cc(C2CC(=O)c3ccc(O)c(CC=C(C)C)c3O2)ccc1O (stereo unspecified) | 1.21
16 | COc1cc(-c2coc3cc(O)ccc3c2=O)ccc1O | 1.12
17 | CC1(C)C=Cc2c(ccc(-c3coc4cc(O)ccc4c3=O)c2O)O1 | 1.4
18 | CC(C)=CCc1c(O)ccc2c1O[C@H](c1ccc3c(c1)C=CC(C)(C)O3)CC2=O | 1.4
19 | O=C1c2ccc(O)cc2OCC1c1ccc(O)c(O)c1 (stereo unspecified) | 2.12
20 | COc1cc(O)c(-c2coc3cc(O)ccc3c2=O)c(OC)c1CC=C(C)C | 1.87
21 | COc1ccc(C2COc3c(cc(CC=C(C)C)c(O)c3O)C2=O)cc1 (stereo unspecified) | 1.06
22 | CC(C)=CCc1cc([C@@H]2CC(=O)c3ccc(O)cc3O2)ccc1O | 2.2
23 | CC(C)=CCc1c(O)ccc(-c2coc3cc(O)ccc3c2=O)c1O | 2.15
24 | CC(C)=CCc1c(O)ccc(-c2coc3cc(O)c(CC=C(C)C)c(O)c3c2=O)c1O | 1.05
25 | O=C(/C=C/c1ccc(O)cc1)c1ccc(O)cc1O | 4.67
26 | CC1(C)C=Cc2c(O)ccc(C3COc4cc(O)cc(O)c4C3=O)c2O1 (stereo unspecified) | 1.42
27 | O=c1c(-c2ccc(O)cc2)coc2cc(O)cc(O)c12 | 1.2
28 | CC(C)=CCc1c(O)ccc(-c2coc3cc(O)cc(O)c3c2=O)c1O | 2.49
29 | COc1ccc(-c2coc3cc(O)ccc3c2=O)cc1 | 2.65
30 | O=C1C[C@@H](c2cc(O)cc(O)c2)Oc2cc(O)ccc21 | 1.54
31 | CC(C)=CCc1cc(-c2coc3c(CC=C(C)C)c(O)cc(O)c3c2=O)cc(O)c1O | 1.2

Row | Compound | fold change (FC)
32 | COc1ccc2c(c1)OC[C@H]1c3ccc(O)cc3O[C@@H]21 | 1.23
33 | CC(C)=CCc1cc([C@@H]2CC(=O)c3cc(CC=C(C)C)c(O)cc3O2)ccc1O | 1.59
34 | CC(C)=CCc1cc2c(=O)cc(-c3ccc4c(c3)C=CC(C)(C)O4)oc2cc1O | 1.03
35 | CC(C)=CCc1c(O)cc(O)c2c1OC[C@@H](c1ccc3c(c1O)C=CC(C)(C)O3)C2=O | 1.88
36 | CC(C)=CCc1cc(/C=C/C(=O)c2ccc(O)c(CC=C(C)C)c2O)ccc1O | 1.22
37 | CC(C)=CCc1c(O)c(CC=C(C)C)c2oc(-c3ccc(O)cc3)cc(=O)c2c1O | 1.46
38 | COc1c(/C=C/C(=O)c2ccc(O)c(CC=C(C)C)c2)ccc(O)c1O [LICOCHALCONE D] | 4.53
39 | CC1(C)C=Cc2c(cc3occ(-c4ccc(O)cc4)c(=O)c3c2O)O1 | 2.17
40 | CC(C)=CCc1c(O)cc2c(c1O)C(=O)[C@H](c1ccc3c(c1O)C=CC(C)(C)O3)CO2 | 2.33
41 | CC(C)=CCc1c(O)c(CC=C(C)C)c2occ(-c3ccc(O)cc3)c(=O)c2c1O | 1.21
42 | CC(C)=CCc1cc([C@@H]2CC(=O)c3ccc(O)cc3O2)cc2c1OC(C)(C)C=C2 | 1.84
43 | CC1(C)C=Cc2cc(/C=C/C(=O)c3ccc(O)cc3O)ccc2O1 | 2.37
44 | CC1(CO)C=Cc2c(ccc(-c3coc4cc(O)ccc4c3=O)c2O)O1 (stereo unspecified) | 2.76
45 | CC(C)=CCc1cc(-c2coc3cc(O)cc(O)c3c2=O)cc(O)c1O | 1.91
46 | C=C(C)[C@H](C)c1cc(/C=C/C(=O)c2ccc(O)cc2)c(OC)cc1O [LICOCHALCONE E] | 5.94
47 | CC(C)=CCc1c(O)cc2occ(-c3ccc4c(c3O)C=CC(C)(C)O4)c(=O)c2c1O | 1.37
48 | O=C1c2c(O)cc(O)cc2OCC1c1ccc(O)cc1 (stereo unspecified) | 1.72
49 | CC(C)=CCc1cc(-c2cc(=O)c3c(O)c(CC=C(C)C)c(O)cc3o2)ccc1O | 2.98
50 | CC1(C)[C@@H](O)CC[C@]2(C)[C@H]3CC=C4[C@@H]5C[C@@](C)(C(=O)O)CC[C@]5(C)CC[C@@]4(C)[C@]3(C)CC[C@@H]12 | 1.43
51 | CC1(C)C=Cc2c(ccc(-c3coc4cc(O)cc(O)c4c3=O)c2O)O1 | 1.47
52 | COc1c(/C=C/C(=O)c2ccc(O)cc2)ccc(O)c1CC=C(C)C | 1.42
53 | COc1ccc(-c2coc3c(O)c(O)c(CC=C(C)C)cc3c2=O)c(O)c1 | 1.42
54 | CC1(C)C=Cc2c(ccc(-c3cc4ccc(O)cc4o3)c2O)O1 | 1.08
55 | O=C1C[C@@H](c2ccc(O)cc2)Oc2cc(O)ccc21 | 1.97

Row | Compound | fold change (FC)
56 | CC1(C)C=Cc2cc(-c3coc4cc(O)cc(O)c4c3=O)cc(O)c2O1 | 1.13
57 | CC1(C)C=Cc2c(O)ccc(-c3coc4cc(O)cc(O)c4c3=O)c2O1 | 1.7
58 | CC(C)=CCc1cc(/C=C/C(=O)c2ccc(O)cc2O)ccc1O | 1.87
59 | CC(C)=CCc1c(O)cc2occ(-c3cc(O)c4c(c3)C=CC(C)(C)O4)c(=O)c2c1O | 1.51
60 | CC1(C)C=Cc2cc(-c3coc4cc(O)ccc4c3=O)c(O)cc2O1 | 2.3
61 | CC(C)=CCc1c(O)cc(O)c2c(=O)c(-c3ccc(O)cc3O)coc12 | 1.78
62 | CC1(C)C=Cc2cc(-c3coc4cc(O)cc(O)c4c3=O)ccc2O1 | 0.76
63 | COc1c(/C=C/C(=O)c2ccc(O)c(O)c2)ccc(O)c1CC=C(C)C | 2.07
64 | CC(C)=CCc1cc([C@@H]2CC(=O)c3c(O)cc(O)c(CC=C(C)C)c3O2)ccc1O | 1.41
65 | C=CC(C)(C)c1cc(/C=C/C(=O)c2ccc(O)c(O)c2)c(OC)cc1O | 5.98
66 | COc1ccc(-c2coc3cc(O)ccc3c2=O)c(O)c1 | 2.28
67 | CC(C)=CCc1c(O)ccc(-c2cc3ccc(O)cc3o2)c1O [2'-O-DEMETHYLBIDWILLOL B] | 4.34
68 | CC(C)=CCc1c(O)ccc(C(=O)/C=C/c2ccc(O)c(O)c2)c1O | 1.56
69 | O=c1cc(-c2ccc(O)cc2)oc2cc(O)ccc12 | 1.23
70 | CC(C)=CCc1c(O)ccc2c1oc1c3ccc(O)cc3oc(=O)c21 | 1.81
71 | CC(C)=CCc1c(O)ccc(C(=O)/C=C/c2ccc(O)cc2)c1O | 1.91
72 | O=C(/C=C/c1ccc(O)c(O)c1)c1ccc(O)c(O)c1 | 1.85
73 | CC(C)=CCc1cc2c(=O)cc(-c3ccc(O)cc3)oc2cc1O | 1.05
74 | CC1(C)C(=O)CC[C@]2(C)[C@H]3C(=O)C=C4[C@@H]5C[C@@](C)(C(=O)O)CC[C@]5(C)CC[C@@]4(C)[C@]3(C)[C@@H](O)C[C@@H]12 | 1.18
75 | COC(C)(C)c1cc2cc3c(=O)cc(-c4ccc(O)c(CC=C(C)C)c4)oc3cc2o1 | 1.54
76 | CC(C)=CCc1c(O)cc2occ(-c3ccc4c(c3)C=CC(C)(C)O4)c(=O)c2c1O | 1.34
77 | CC(C)=CCc1c(O)cc2occ(-c3ccc(O)cc3)c(=O)c2c1O | 1.49
78 | CC1(C)C=Cc2c(ccc3c(=O)c(-c4ccc(O)cc4O)coc23)O1 | 1.76

biological target: T1, Nuclear factor erythroid 2-related factor 2 (Homo sapiens); experiment: Activation of Nrf2 (unknown origin) expressed in human HepG2 cells at 2.5 to 20 uM incubated for 6 hrs by ARE-driven luciferase reporter gene assay; type: cell-based; conditions: not given

Row | Compound | Activity
79 | C=CC(C)(C)c1cc(/C=C/C(=O)c2ccc(O)cc2)c(OC)c(O)c1O | Dose-dependent effect
80 | COc1c(/C=C/C(=O)c2ccc(O)c(CC=C(C)C)c2)ccc(O)c1O [LICOCHALCONE D] | Dose-dependent effect
81 | CC(C)=CCc1c(O)ccc(-c2cc3ccc(O)cc3o2)c1O [2'-O-DEMETHYLBIDWILLOL B] | Dose-dependent effect

Source: ChEMBL document CHEMBL4043194, “Nrf2 activators from Glycyrrhiza inflata and their hepatoprotective activities against CCl4-induced liver injury in mice” (Bioorg Med Chem, 2017)
